Results on two molecules are retold here after patent publication US12558383B2, “American cockroach extract, preparation thereof, preparation methods therefor and applications thereof” (SICHUAN GOOD DOCTOR PANXI PHARMACEUTICAL CO., LTD, priority 2019, dated 2026).

Experiment [1] deals with NO release, LPS induced mouse macrophages (RAW264.7). Nature of the experiment: NO release of LPS-stimulated RAW264.7 macrophages (Griess method). It counts as cell-based. The conditions noted are these: positive drug andrographolide group; LPS 1 μg/mL, NO at 12 h; n=3. As to the method: (§1) Based on TNF-a-IL-6/iNOS-NO inflammatory signal pathway, the regulatory effects of drugs MLG, MLP and MLX on LPS induced inflammation of mouse macrophages (RAW264.7) were evaluated.
(§2) The original solution of drugs MLG, MLP and MLX was diluted by 80 times, 120 times and 160 times, respectively, incubated with cells for 12 h in advance, and used to stimulate cells to induce inflammation by a final concentration of 1 μg/ml LPS. Enzyme linked immunosorbent assay (ELISA) and Griess method were used to detect the release amount of TNF-α at 50 min, and IL-6 at 4 h and NO at 12 h upon LPS stimulation.
(§3) The original solution of drugs MLG, MLP and MLX was diluted by 80 times, 120 times and 160 times respectively, incubated with cells for 12 hours in advance, and then added with 1 μg/mL LPS to stimulate cell inflammation. […]
(§4) All indexes were tested strictly in accordance with the instructions of kits. Finally, the absorbance value at the specific wavelengths were detected on an enzyme labeling instrument, and the content of indexes of each sample were calculated according to the standard curve prepared by the same method. If the absorbance value is lower than the absorbance value of the sample at the lower limit of the standard curve, it is counted as lower than the relevant value, and the relevant statistics are calculated as 0 mean and 0 variance.

For experiment [2], the system named is IL-6 release, LPS induced mouse macrophages (RAW264.7). Nature of the experiment: IL-6 release of LPS-stimulated RAW264.7 macrophages (ELISA). It is filed as cell-based. The conditions noted are these: positive drug andrographolide group; LPS 1 μg/mL, IL-6 at 4 h; n=3. As to the method:
as §1, §2, §3, §4

For experiment [3], the system named is TNF-α release, LPS induced mouse macrophages (RAW264.7). Kind of experiment: TNF-α release of LPS-stimulated RAW264.7 macrophages (ELISA). It counts as cell-based. The conditions noted are these: positive drug andrographolide group; LPS 1 μg/mL, TNF-α at 50 min; n=3. As for the experimental part:
as §1, §2, §3, §4

The subject of experiment [4] is skin capillary permeability induced by xylene in mice. Nature of the experiment: Increase of skin capillary permeability induced by xylene in mice (Evans blue). It counts as in vivo. The conditions noted are these: extracts 2 mL/kg intragastric, dexamethasone 0.375 mg/kg, once a day 7 times. As for the experimental part: Fifty mice weighing 18-22 g were randomly divided into five groups according to their body weights: MLX, MLG and MLP test groups. […] One hour after the last administration, various mice were injected with 0.5% Evans blue normal saline solution by 0.1 ml/10 g bw via caudal vein, and then xylene were dropped by 30 μL/per mouse on the abdominal skin depilated 24 hours in advance. After 20 minutes, the mice were killed by removing the cervical vertebra. The blue stained skin on the abdomen was cut off, and cut into pieces with surgical scissors, placed into a test tube with a plug, added with and soaked in 5 ml of acetone normal saline (7:3), placed in the dark for 72 hours, and centrifuged at 3000 r/min for 10 minutes to obtain a supernatant. Colorimetric detection was performed at the wavelength of 590 nm on a spectral scanning multifunctional reader to measure the absorbance (OD value). The permeability is represented by OD value, and the results are statistically compared.

The test system of experiment [5] is cotton ball granuloma in mice. Kind of experiment: Cotton ball granuloma in mice. It counts as in vivo. The conditions noted are these: extracts 2 mL/kg, dexamethasone 0.2 mg/kg, 7 consecutive days, n=10. As for the experimental part:
Fifty mice weighing 18-22 g were taken, 10/group, half male and half female. The mice were fixed, and disinfected on the chest with iodine. Iodine was removed with 75% alcohol cotton ball. A small hole was cut in the chest, 20 mg high-pressure sterilized cotton ball was implanted into the armpit subcutaneously from the incision with ophthalmic forceps, and then the skin was sutured. […] The above groups were administrated for 7 consecutive days. Before the end of the test on the 8th day, the body weight was measured, then the mice were killed by taking off the cervical vertebra. The implanted cotton ball was taken out together with the surrounding connective tissue, removed of the adipose tissue, wet weighted, placed into the oven at 60° C. for 24 hours, and weighed on a precision balance. The weight of granuloma was obtained by subtracting the original weight of cotton ball from the weighed weight, and the comparison and statistical analysis between groups were carried out.

Marks after values point to notes of the source that are not given here.

In turn, `C=C1CC[C@@H]2[C@](C)(CO)[C@H](O)CC[C@@]2(C)[C@@H]1C/C=C1/C(=O)OC[C@H]1O` [Andro., andrographolide] registered an NO in experiment [1] of 1.86 ± 0.34 µM. In experiment [2], this molecule gave an IL-6 of 286.07 ± 47.81 pg/mL. The TNF-α in experiment [3] turned out to be 592.26 ± 45.7 pg/mL.

Regarding `C[C@@H]1C[C@H]2[C@@H]3CCC4=CC(=O)C=C[C@]4(C)[C@@]3(F)[C@@H](O)C[C@]2(C)[C@@]1(O)C(=O)CO` [dexamethasone], the inhibition at 0.375 mg/kg in experiment [4] (Mus musculus, po, 168 h, n=10, read-out: Inhibitory rate) was above 80%. In addition, the Inhibitory rate in experiment [4] (n=10) worked out at 80.7%. Also, in experiment [5], the “Dry weigh of granuloma” value was 35.63 ± 8.38**^ mg and the “Wet weigh of granuloma” value worked out at 252.3 ± 33.6 mg.
